How the values were obtained:
nitric oxide = experiment: Griess nitrite production assay in LPS-activated RAW264.7 macrophages; format: cell-based, mouse; conditions: LPS 100 ng/mL; NDX1 0.2, 1 and 5 mM, NDX2 0.5 and 5 mM, NAG 0.5-5 mM; n=6
Description: (§1) Mouse RAW264.7 macrophage cell line (ATCC; Manassas, VA, USA) was maintained in DMEM culture medium containing 10% FBS and 1% antibiotic mix. For cell treatment, the test drugs at different doses were added to the culture 0.5 h prior to addition of 100 ng/mL LPS (Sigma-Aldrich Co., St Louis, MO, USA) and then cells were co-treated with LPS for 24 hours.
The Griess reagent system is based on the chemical reaction which uses sulfanilamide and N-1-napthylethylenediamine dihydrochloride (NED) under acidic (phosphoric acid) conditions. This system detects nitrite production. In the present experiments, nitric oxide detection was performed by a commercial kit (Promega Corporation, Madison, WI, USA), according to the manufacturer's manual. Briefly, all experimental samples and standards containing the dilution series for the nitrite standard reference curve were mixed with 50 μL of the sulfanilamide solution and incubated 10 mins at room temperature without light in a 96-well plate. Then 50 μL of the NED Solution was added to each well and incubated 10 mins at room temperature without light. The optical density (OD) was determined at 530 nm on a microplate reader within 30 mins. No LPS and the other drugs were added in the non-treatment group (NT). The experiment was duplicated. There were six repeats in each group (n=6). […].

IL-6 [1] = experiment: IL-6 ELISA in LPS-activated primary mouse peritoneal macrophages; format: cell-based; conditions: LPS 100 ng/mL; NDX1 and NDX2 0.01, 0.1, 1 mM; NAG 0.1 and 1 mM; n=8
Description: • 1. Non treatment (NT) • 2. LPS 100 ng/mL • 3. LPS 100 ng/mL+NDX1 dose1* • 4. LPS 100 ng/mL+NDX1 dose2* • 5. LPS 100 ng/mL+NDX1 dose3* • 6. LPS 100 ng/mL+NDX2 dose1 • 7. LPS 100 ng/mL+NDX2 dose2 • 8. LPS 100 ng/mL+NDX2 dose3 • 9. LPS 100 ng/mL+NAG dose2 • 10. LPS 100 ng/mL+NAG dose3 (*dose 1, 2, 3 were selected as low, middle and high dose with no cytotoxicity from the cytotoxic assay)
The peritoneal macrophages were isolated from peritoneal cavity, and cultured in Dulbecco's modified Eagle's medium (DMEM, Gibco BRL, Gaithersburg, MD) supplemented with 10% fetal bovine serum (FBS) (Hyclone Laboratories, Logan, VT) and 100 IU/mL penicillin G and 100 µg/mL streptomycin, in a humidified atmosphere of 5% carbon dioxide at 37° C. Cells will grow on a 96-well plate and co-treated with 100 ng/ml LPS (Sigma-Aldrich) 0.5 hours after addition of BNAGs and NAG. Twenty-four hours later, the cell number was counted by using the WST-1 kit (Fisher Scientific). After removal of the supernatant, […] new medium was added into each cell. […] Each sample was determined at 450 nm on a microplate reader.
The amounts of IL-6 and TNFα were measured by a commercial ELISA kit (Sigma-Aldrich), following the instructions provided by the manufacturer. […] The resultant solutions were read at 450 nm on a microplate reader.

[2] = test system: mouse macrophage cell line RAW264.7 cells; experiment: WST-1 cytotoxicity assay in RAW264.7 cells; format: cell-based; conditions: concentrations up to 5 mM, 24 h, n=8
Description: Mouse RAW264.7 macrophage cell line (ATCC; Manassas, VA, USA) was maintained in DMEM culture medium containing 10% FBS and 1% antibiotic mix. For cell treatment, the test drugs at different doses were added to the culture 0.5 h prior to addition of 100 ng/mL LPS (Sigma-Aldrich Co., St Louis, MO, USA) and then cells were co-treated with LPS for 24 hours. Macrophages in the control group and the treatment groups was seeded on a 96-well plate for 24 hrs and the cell number was counted using the WST-1 kit (Fisher Scientific). After removal of the supernatant, 150 μL of the fresh medium was added into each well. Then 15 μL of the Cell Proliferation Reagent WST-1 was added and incubated with cells for 3 hrs in dark with a humidified atmosphere of 5% carbon dioxide at 37° C. Each sample was determined at 450 nm on a microplate reader. No drugs were added in the non-treatment group (NT). There were eight repeats in each group (n=8). The experiment was duplicated.

[3] = test system: primary mouse peritoneal macrophages; experiment: WST-1 assay in LPS-activated primary mouse peritoneal macrophages; format: cell-based; conditions: LPS 100 ng/mL, doses of up to 1 mM, 24 h, n=8
Description: • 1. Non treatment (NT) • 2. LPS 100 ng/mL • 3. LPS 100 ng/mL+NDX1 dose1* • 4. LPS 100 ng/mL+NDX1 dose2* • 5. LPS 100 ng/mL+NDX1 dose3* • 6. LPS 100 ng/mL+NDX2 dose1 • 7. LPS 100 ng/mL+NDX2 dose2 • 8. LPS 100 ng/mL+NDX2 dose3 • 9. LPS 100 ng/mL+NAG dose2 • 10. LPS 100 ng/mL+NAG dose3 (*dose 1, 2, 3 were selected as low, middle and high dose with no cytotoxicity from the cytotoxic assay) The peritoneal macrophages were isolated from peritoneal cavity, and cultured in Dulbecco's modified Eagle's medium (DMEM, Gibco BRL, Gaithersburg, MD) supplemented with 10% fetal bovine serum (FBS) (Hyclone Laboratories, Logan, VT) and 100 IU/mL penicillin G and 100 µg/mL streptomycin, in a humidified atmosphere of 5% carbon dioxide at 37° C. Cells will grow on a 96-well plate and co-treated with 100 ng/ml LPS (Sigma-Aldrich) 0.5 hours after addition of BNAGs and NAG. Twenty-four hours later, the cell number was counted by using the WST-1 kit (Fisher Scientific). After removal of the supernatant, […] new medium was added into each cell. Then 15 μl Cell Proliferation Reagent WST-1 was added and incubated with cells for 3 hours in dark with a humidified atmosphere of 5% carbon dioxide at 37° C. Each sample was determined at 450 nm on a microplate reader.

IL-6 [4] = experiment: IL-6 ELISA in LPS-activated RAW264.7 macrophages; format: cell-based, mouse; conditions: LPS 100 ng/mL, concentrations up to 5 mM, n=8
Description: as §1
The amounts of IL-6 in culture medium from different treatments were measured by a commercial ELISA kit (Sigma-Aldrich), following the instructions provided by the manufacturer. Briefly, cells were seeded on a 96-well plate and various treatments were performed. The culture medium were collected and mixed with different assay reagents step by step. The resultant solutions were read at 450 nm on a microplate reader. There were eight repeats in each group (n=8). *P<0.05 vs LPS group. The experiment was duplicated.

CC(=O)N[C@H]1C(O)O[C@H](CO)[C@@H](O)[C@@H]1O (some centres unmarked) [NAG, N-acetyl glucosamine]
inhibition of nitric oxide (nitrite) production (nitric oxide): couldn't | reduction of IL-6 production (ELISA) (IL-6 [1]): could significantly reduce IL-6 and TNFa production | toxicity / cell growth (WST-1) [2]: less toxicity than NDX1 | effect on cell number (WST-1) compared with LPS alone [3]: no significant effect on cell number | reduction of IL-6 production (ELISA) (IL-6 [4]): could significantly reduce IL-6 production
